Reference: ChEMBL document CHEMBL3044558, “Structure-activity relationship development of dihaloaryl triazole compounds as insecticides and acaricides. 1. Phenyl thiophen-2-yl triazoles” (2007)
Activity calls are given as the source filed them. No cut-off for these calls is given here.

What was measured:
Bemisia tabaci [1] = test: Insecticidal activity against Bemisia tabaci (sweet potato whitefly) second-instar larvae infested five weeks old cotton plants followed by compound 250 ppm compound spraying after insect oviposit assessed as insect mortality measured 13 days post compound treatment under green house conditions; assay type: functional
Spodoptera exigua = test: Insecticidal activity against Spodoptera exigua second-instar larvae feeded on 400 ppm compound treated lepidopteran diet assessed as insect mortality measured 5 days post compound treatment under green house conditions; assay type: functional; settings: at 400 ppm
Heliothis virescens = test: Insecticidal activity against Heliothis virescens (tobacco budworm) second-instar larvae infested on 400 ppm compound pre-treated cotton cotyledon disk assessed as insect mortality measured 5 days post compound treatment under green house conditions; assay type: functional
Tetranychus urticae = test: Insecticidal activity against female Tetranychus urticae (two-spotted spider mite) infested cotton leaf disks followed by 2.5 ppm compound spraying after oviposit assessed as insect mortality measured after 6 days post compound application under green house conditions; assay type: functional; settings: foliar, 144 h
Aphis gossypii [2] = test: Insecticidal activity against Aphis gossypii (cotton aphid) infested one week old Crookneck squash plants assessed as insect mortality at 50 ppm measured after 3 days post compound application under green house conditions; assay type: functional; settings: 72 h
Trichoplusia ni [3] = test system: Trichoplusia ni
Trichoplusia ni [4] = test: Insecticidal activity against Trichoplusia ni (cabbage looper) second-instar larvae infested on 400 ppm compound pre-treated cabbage leaf disk assessed as insect mortality measured 5 days post compound treatment under green house conditions; assay type: functional; settings: at 400 ppm
Bemisia tabaci [5] = test system: Bemisia tabaci
Aphis gossypii [6] = test system: Aphis gossypii

Compound	mortality (Bemisia tabaci [1])	mortality (Spodoptera exigua)	mortality (Heliothis virescens)	mortality at 2.5 ppm (Tetranychus urticae)	mortality at 50 ppm (Aphis gossypii [2])	mortality (Trichoplusia ni [3])	mortality (Trichoplusia ni [4])	mortality (Bemisia tabaci [5])	mortality (Aphis gossypii [6])
Cn1nc(-c2c(F)cccc2Cl)nc1-c1sc(-c2ccc(-c3ccccc3)cc2)c(Cl)c1Cl	<50%	50%	90%	80%	90%	inactive	–	–	–
Cc1cc(Oc2ncc(C(F)(F)F)cc2Cl)sc1-c1nc(-c2c(F)cccc2Cl)nn1C	90%	70%	90%	90%	90%	inactive	–	–	–
CCOc1ccc(-c2cc(Cl)c(-c3nc(-c4c(F)cccc4F)nn3C)s2)cc1	–	60%	90%	80%	–	–	<50%	inactive	inactive
Cc1cc(-c2ccc(OC(F)(F)C(F)C(F)(F)F)cc2)sc1-c1nc(-c2c(F)cccc2Cl)nn1C (configuration not stated)	<50%	80%	90%	90%	90%	–	90%	–	–
Cc1cc(-c2ccc3c(c2)OCCO3)sc1-c1nc(-c2c(F)cccc2Cl)nn1C	–	80%	90%	90%	–	–	80%	inactive	inactive
Cc1cc(C2=CCC(OC(=O)C(F)(F)Br)CC2)sc1-c1nc(-c2c(F)cccc2Cl)nn1C (configuration not stated)	–	<50%	90%	70%	< 50%	inactive	–	–	–
Cc1sc(-c2nc(-c3c(F)cccc3Cl)nn2C)c(C)c1-c1ccc(OC(F)(F)F)cc1	60%	90%	90%	90%	70%	–	<50%	–	–
Cn1nc(-c2c(F)cccc2Cl)nc1-c1sc(-c2ccc(Br)cc2)cc1Cl	–	80%	90%	90%	90%	–	90%	inactive	–
Cc1cc(-c2cccc(C(F)(F)F)c2F)sc1-c1nc(-c2c(F)cccc2Cl)nn1C	–	60%	90%	90%	60%	–	90%	inactive	–
CCOc1cccc(-c2cc(C)c(-c3nc(-c4c(F)cccc4Cl)nn3C)s2)c1	–	80%	<50%	70%	–	–	<50%	inactive	inactive
CCOc1ccc(-c2sc(-c3nc(-c4c(F)cccc4Cl)nn3C)c(Cl)c2Br)cc1	–	90%	90%	60%	< 50%	–	<50%	inactive	–
Cc1cc(-c2ccc3c(c2)COC3)sc1-c1nc(-c2c(F)cccc2Cl)nn1C	–	60%	90%	80%	–	–	70%	inactive	inactive
Cc1cc(-c2ccc(Cl)cc2)sc1-c1nc(-c2c(F)cccc2Cl)nn1C	60%	90%	90%	90%	60%	–	90%	–	–
Cc1cc(-c2ccc(C(F)(F)F)cc2)sc1-c1nc(-c2c(F)cccc2Cl)nn1C	<50%	90%	90%	90%	< 50%	–	90%	–	–
Cn1nc(-c2c(F)cccc2Cl)nc1-c1sc(-c2ccc(OC(F)(F)F)cc2)c(Br)c1Cl	<50%	90%	90%	80%	60%	–	70%	–	–
Cc1c(-c2ccc(OC(F)(F)F)cc2)sc(-c2nc(-c3c(F)cccc3Cl)nn2C)c1C	70%	80%	<50%	90%	< 50%	–	90%	–	–
Cc1cc(-c2cccc(C(F)(F)F)c2)sc1-c1nc(-c2c(F)cccc2Cl)nn1C	–	70%	<50%	< 50%	< 50%	–	90%	inactive	–
Cc1c(-c2ccc(OC(F)(F)C(F)Cl)cc2)sc(-c2nc(-c3c(F)cccc3Cl)nn2C)c1C (configuration not stated)	60%	60%	90%	80%	< 50%	–	<50%	–	–

Compound	mortality (Bemisia tabaci [1])	mortality (Spodoptera exigua)	mortality (Heliothis virescens)	mortality at 2.5 ppm (Tetranychus urticae)	mortality at 50 ppm (Aphis gossypii [2])	mortality (Trichoplusia ni [3])	mortality (Trichoplusia ni [4])	mortality (Bemisia tabaci [5])	mortality (Aphis gossypii [6])
Cc1c(-c2ccc(OC(F)(F)C(F)C(F)(F)F)cc2)csc1-c1nc(-c2c(F)cccc2Cl)nn1C (configuration not stated)	90%	60%	90%	90%	90%	–	90%	–	–
CCOc1ccc(-c2cc(Cl)c(-c3nc(-c4c(F)cccc4Cl)nn3C)s2)cc1	–	80%	60%	90%	–	–	90%	inactive	inactive
CCOc1ccc(-c2sc(-c3nc(-c4c(F)cccc4Cl)nn3C)c(C)c2C)cc1	–	90%	<50%	90%	< 50%	–	80%	inactive	–
Cc1sc(-c2nc(-c3c(F)cccc3Cl)nn2C)c(C)c1-c1ccc(OC(F)(F)C(F)Br)cc1 (configuration not stated)	80%	80%	90%	80%	50%	–	–	–	–
Cc1cc(C2CCC(OC(F)(F)C(F)Cl)CC2)sc1-c1nc(-c2c(F)cccc2Cl)nn1C (configuration not stated)	–	90%	90%	80%	< 50%	–	90%	–	–
Cc1c(-c2ccc(OC(F)(F)C(Cl)Cl)cc2)csc1-c1nc(-c2c(F)cccc2Cl)nn1C	90%	90%	90%	90%	90%	–	<50%	–	–
Cc1sc(-c2nc(-c3c(F)cccc3Cl)nn2C)c(C)c1-c1ccc(Cl)cc1	–	80%	90%	80%	50%	–	<50%	inactive	–
Cc1c(-c2ccc(OC(F)=C(Cl)Cl)cc2)csc1-c1nc(-c2c(F)cccc2Cl)nn1C	70%	80%	90%	90%	70%	–	<50%	–	–
Cc1c(-c2ccc(C(C)C)cc2)csc1-c1nc(-c2c(F)cccc2Cl)nn1C	–	80%	90%	90%	–	–	50%	inactive	inactive
Cc1cc(-c2ccc(C(C)C)cc2)sc1-c1nc(-c2c(F)cccc2Cl)nn1C	–	70%	90%	90%	< 50%	–	90%	inactive	–
CSc1ccc(-c2cc(Cl)c(-c3nc(-c4c(F)cccc4Cl)nn3C)s2)cc1	<50%	60%	90%	90%	60%	–	80%	–	–
Cc1cc(-c2ccc(OC(C)C)cc2)sc1-c1nc(-c2c(F)cccc2Cl)nn1C	–	60%	80%	60%	–	–	90%	–	inactive
Cc1cc(-c2ccc(F)cc2)sc1-c1nc(-c2c(F)cccc2Cl)nn1C	–	80%	90%	60%	< 50%	–	90%	inactive	–
Cc1sc(-c2nc(-c3c(F)cccc3Cl)nn2C)c(C)c1-c1ccc(OC(F)(F)C(F)Cl)cc1 (configuration not stated)	80%	80%	80%	70%	< 50%	–	<50%	–	–
CCOc1ccc(-c2csc(-c3nc(-c4c(F)cccc4Cl)nn3C)c2C)cc1	90%	80%	90%	90%	50%	–	90%	–	–
Cc1cc(-c2ccc(OC(F)(F)C(Cl)Cl)cc2)sc1-c1nc(-c2c(F)cccc2Cl)nn1C	50%	90%	90%	90%	90%	–	80%	–	–
Cn1nc(-c2c(F)cccc2Cl)nc1-c1sc(-c2ccc(C(F)(F)F)cc2)cc1Cl	<50%	60%	90%	90%	90%	–	90%	–	–
Cn1nc(-c2c(F)cccc2F)nc1-c1sc(-c2ccc(OC(F)(F)F)cc2)cc1Cl	–	<50%	80%	90%	80%	–	<50%	inactive	–
